For experiment [1], the target named is T1, GPR6 (Homo sapiens, UniProt P46095).
T1 construct: expressed in transfected cells; host or cells: CHO cells
As to the kind of experiment: GPR6 antagonist functional cAMP assay (LANCE Ultra cAMP TR-FRET, CHO cells stably expressing GPR6). The class given is cell-based. In short, it runs like this:
(§1)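 cAMP quantified by TR-FRET immunoassay after 45 min compound treatment at 37° C of CHO cells stably expressing GPR3 or GPR6, in PDE-inhibitor (Ro 20-1724, 150 μM) buffer with 0.1% BSA. Data scaled between DMSO (0%) and reference compounds (100%); antagonist IC50 by 4-parameter logistic fit.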
In general terms: Changes in cAMP serve as a functional read-out for many G protein-coupled receptors.

The target in experiment [2] is T2, GPR3 (Homo sapiens, UniProt P46089).
T2 construct: expressed in transfected cells; host or cells: CHO cells
T2 sequence (P46089 whole entry, species assumed): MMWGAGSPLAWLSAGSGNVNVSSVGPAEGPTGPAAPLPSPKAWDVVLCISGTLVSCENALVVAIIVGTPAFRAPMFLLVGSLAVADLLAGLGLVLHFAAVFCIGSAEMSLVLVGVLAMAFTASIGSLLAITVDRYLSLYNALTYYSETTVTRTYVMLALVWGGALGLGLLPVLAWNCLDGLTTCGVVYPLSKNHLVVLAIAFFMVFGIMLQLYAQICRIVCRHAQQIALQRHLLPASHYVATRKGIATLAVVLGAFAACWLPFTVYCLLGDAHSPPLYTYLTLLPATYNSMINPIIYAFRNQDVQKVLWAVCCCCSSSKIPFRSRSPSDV
Nature of the experiment: GPR3 antagonist functional cAMP assay (LANCE Ultra cAMP TR-FRET, CHO cells stably expressing GPR3). The class given is cell-based. In short, it runs like this: as §1

Setting [3] is: CHO cells stably expressing GPR6, cAMP assay (Example 24).
The mark [4] stands for this setting: CHO cells stably expressing GPR3, cAMP assay (Example 24).
The mark [5] stands for this setting: CHO cells stably expressing GPR6, cAMP assay.
The mark [6] stands for this setting: CHO cells stably expressing GPR3, cAMP assay.
Setting [7] is: procedure as described in Example 24.

SMILES strings stand for the structures. Some results are limits rather than exact numbers.

T1 sequence (P46095 whole entry): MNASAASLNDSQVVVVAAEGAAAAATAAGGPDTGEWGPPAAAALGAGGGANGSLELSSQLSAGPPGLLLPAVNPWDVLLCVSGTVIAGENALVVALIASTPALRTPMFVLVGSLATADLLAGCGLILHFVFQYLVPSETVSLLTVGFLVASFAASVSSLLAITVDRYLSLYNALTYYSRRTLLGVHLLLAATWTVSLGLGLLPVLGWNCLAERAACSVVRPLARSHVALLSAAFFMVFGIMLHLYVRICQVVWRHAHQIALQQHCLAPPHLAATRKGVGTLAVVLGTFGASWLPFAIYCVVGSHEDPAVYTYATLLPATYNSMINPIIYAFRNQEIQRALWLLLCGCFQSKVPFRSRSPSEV

With `CC(=O)N1CCC(c2nc3c(nc2N2CCC(Oc4ccc(F)cc4F)CC2)CCN(C(C)=O)C3)CC1` [Compound 91, 1-(4-(6-acetyl-2-(4-(2,4-difluorophenoxy)piperidin-1-yl)-5,6,7,8-tetrahydropyrido[3,4-b]pyrazin-3-yl)piperidin-1-yl)ethan-1-one], the IC50 in experiment [1] (setting [3]) and in experiment [2] (setting [4]) was 1 to 30 µM each time.

With `CC(=O)N1CCc2nc(N3CCN(Cc4ccc(F)c(F)c4)CC3)c(-c3cnn(C)c3)nc2C1` [Compound 321, 1-(2-{4-[(3,4-difluorophenyl)methyl]piperazin-1-yl}-3-(1-methyl-1H-pyrazol-4-yl)-5H,6H,7H,8H-pyrido[3,4-b]pyrazin-6-yl)ethan-1-one], the IC50 in experiment [1] (procedure of Example 24) and in experiment [2] (procedure of Example 24) was 1 to 30 µM each time.

Consider `CC(=O)N1CCc2nc(N3CCC(Oc4ccc(F)cc4F)CC3)c(-c3ccnc(C)n3)nc2C1` [Compound 435, 1-{2-[4-(2,4-difluorophenoxy)piperidin-1-yl]-3-(2-methylpyrimidin-4-yl)-5H,6H,7H,8H-pyrido[3,4-b]pyrazin-6-yl}ethan-1-one], for which the IC50 (in general, the midpoint of a concentration-inhibition curve) in experiment [1] (setting [3]) lay in the range of 0.1 to 1 µM; in experiment [2] (setting [4]) it was 1 to 30 µM.

For `COc1ccc(CN2CCN(c3nc4c(nc3-c3cnn(C)c3)CN(C(C)=O)CC4)CC2)cc1F` [Compound 319, 1-(2-{4-[(3-fluoro-4-methoxyphenyl)methyl]piperazin-1-yl}-3-(1-methyl-1H-pyrazol-4-yl)-5H,6H,7H,8H-pyrido[3,4-b]pyrazin-6-yl)ethan-1-one], the IC50 in experiment [1] (procedure of Example 24) and in experiment [2] (procedure of Example 24) was 1 to 30 µM throughout.

With `CC(=O)N1CCc2nc(N3CCC(C(=O)c4ccc(F)cc4F)CC3)c(-c3cnn(C)c3)nc2C1` [Compound 541, 1-{2-[4-(2,4-difluorobenzoyl)-1-piperidyl]-3-(1-methyl-4-pyrazolyl)-5,6,7,8-tetrahydro-1,4,6-triaza-6-naphthyl}-1-ethanone], the figures for the IC50 in experiment [1] (setting [5]) and in experiment [2] (setting [6]) were 0.1 to 1 µM and 1 to 30 µM, respectively.

`CC(=O)N1CCc2nc(N3CCC(Oc4ccc(F)cc4F)CC3)c(-c3cnn(C4CNC4)c3)nc2C1` [Compound 134, 1-{3-[1-(azetidin-3-yl)-1H-pyrazol-4-yl]-2-[4-(2,4-difluorophenoxy)piperidin-1-yl]-5H,6H,7H,8H-pyrido[3,4-b]pyrazin-6-yl}ethan-1-one]: the IC50 in experiment [1] (setting [3]) and in experiment [2] (setting [4]) was 1 to 30 µM in each case.

`CC(C)(O)C(O)c1cc2nc(N3CCN(Cc4ccccc4F)CC3)c(-c3cnn(C(F)F)c3)nc2cn1` (stereo not drawn) [Compound 559, 1-{3-[1-(difluoromethyl)-4-pyrazolyl]-2-{4-[(o-fluorophenyl)methyl]-1-piperazinyl}-1,4,6-triaza-7-naphthyl}-2-methyl-1,2-propanediol]: the values for the IC50 in experiment [1] (setting [5]) and in experiment [2] (setting [6]) were 0.1 to 1 µM and 1 to 30 µM, respectively.

Take `Cn1cc(-c2nc3cnc([C@@](C)(O)CO)cc3nc2N2CCC(Oc3ccc(F)cc3F)CC2)cn1` (single isomer, unassigned) [Compound 564]: the IC50 was 0.1 to 1 µM in experiment [1] (setting [5]) and 1 to 30 µM in experiment [2] (setting [6]).

With `CC(C)(O)[C@](C)(O)c1cc2nc(N3CCC(Oc4ccc(F)cc4F)CC3)c(-c3cnn(CF)c3)nc2cn1` (single isomer, unassigned) [Compound 677], the results for the IC50 in experiment [1] (procedure of Example 24) and in experiment [2] (procedure of Example 24) were 0.1 to 1 µM and 1 to 30 µM, respectively.

As for `CCS(=O)(=O)N1CCc2nc(N3CCC(Oc4ccc(F)cc4F)CC3)c(-c3cn[nH]c3)nc2C1` [Compound 123, 4-(2,4-difluorophenoxy)-1-[6-(ethanesulfonyl)-3-(1H-pyrazol-4-yl)-5H,6H,7H,8H-pyrido[3,4-b]pyrazin-2-yl]piperidine], the IC50 in experiment [1] (setting [3]) is 0.1 to 1 µM; in experiment [2] (setting [4]), 1 to 30 µM.

Consider `CCn1cc(-c2nc3c(nc2N2CCC(Oc4ccc(F)cc4F)CC2)CCN(S(=O)(=O)CC)C3)cn1` [Compound 267, 4-(2,4-difluorophenoxy)-1-[6-(ethanesulfonyl)-3-(1-ethyl-1H-pyrazol-4-yl)-5H,6H,7H,8H-pyrido[3,4-b]pyrazin-2-yl]piperidine], for which the values for the IC50 in experiment [1] (procedure of Example 24) and in experiment [2] (procedure of Example 24) were 0.1 to 1 µM and 1 to 30 µM, respectively.

With `CC(=O)N1CCc2nc(N3CCC(Oc4ccc(F)cc4F)CC3)c(-c3cn[nH]c3C3CC3)nc2C1` [Compound 62, 1-[3-(5-cyclopropyl-1H-pyrazol-4-yl)-2-[4-(2,4-difluorophenoxy)piperidin-1-yl]-5H,6H,7H,8H-pyrido[3,4-b]pyrazin-6-yl]ethan-1-one], the IC50 in experiment [1] (setting [3]) and in experiment [2] (setting [4]) was 1 to 30 µM throughout.

Turning to `CC(C)(O)Cc1cc2nc(-c3cnn(CF)c3)c(N3CCC(Oc4ccc(F)cc4F)CC3)nc2cn1` [Compound 717, 1-{3-[4-(2,4-difluorophenoxy)-1-piperidyl]-2-[1-(fluoromethyl)-4-pyrazolyl]-1,4,6-triaza-7-naphthyl}-2-methyl-2-propanol], the IC50 in experiment [1] (procedure of Example 24) is 0.1 to 1 µM; in experiment [2] (procedure of Example 24), 1 to 30 µM.

As for `Fc1ccc(OC2CCN(c3nc4ccncc4nc3-c3ncn[nH]3)CC2)c(F)c1` [Compound 96, 4-(2,4-difluorophenoxy)-1-[3-(1H-1,2,4-triazol-5-yl)pyrido[3,4-b]pyrazin-2-yl]piperidine], the IC50 in experiment [1] (setting [3]) and in experiment [2] (setting [4]) was 1 to 30 µM each time.

Consider `CC(=O)N1CCc2nc(N3CCN(Cc4ccc(=O)n(C)c4)CC3)c(-c3cnn(C)c3)nc2C1` [Compound 535, 5-({4-[6-acetyl-3-(1-methyl-4-pyrazolyl)-5,6,7,8-tetrahydro-1,4,6-triaza-2-naphthyl]-1-piperazinyl}methyl)-1-methyl-2(1H)-pyridinone], for which the IC50 in experiment [1] (setting [5]) and in experiment [2] (setting [6]) was at least 30 µM in each case.

For `CC(=O)N1CCc2nc(N3CCC(=Cc4ccccc4)CC3)c(-c3cnn(C)c3)nc2C1` [Compound 646, 1-[2-(4-benzylidene-1-piperidyl)-3-(1-methyl-4-pyrazolyl)-5,6,7,8-tetrahydro-1,4,6-triaza-6-naphthyl]-1-ethanone], the IC50 is 0.1 to 1 µM in experiment [1] (procedure of Example 24) and 1 to 30 µM in experiment [2] (procedure of Example 24).

Turning to `Cn1cc(-c2nc3cnc(OC4COC4)cc3nc2N2CCC(Oc3ccc(F)cc3F)CC2)cn1` [Compound 382, 4-(2,4-difluorophenoxy)-1-[3-(1-methyl-1H-pyrazol-4-yl)-7-(oxetan-3-yloxy)pyrido[3,4-b]pyrazin-2-yl]piperidine], the IC50 in experiment [1] (setting [3]) was in the range of 0.1 to 1 µM; in experiment [2] (setting [4]) it was 1 to 30 µM.

Take `CC(=O)N1CCc2nc(N3CCC(Oc4ccc(F)cc4F)CC3)c(C3=COCCC3)nc2C1` [Compound 219, 1-{2-[4-(2,4-difluorophenoxy)piperidin-1-yl]-3-(3,4-dihydro-2H-pyran-5-yl)-5H,6H,7H,8H-pyrido[3,4-b]pyrazin-6-yl}ethan-1-one]: the figures for the concentration for half-maximal inhibition (IC50) in experiment [1] (setting [3]) and in experiment [2] (setting [4]) were 0.1 to 1 µM and at least 30 µM, respectively.

With `CCn1cc(-c2nc3c(nc2N2CCC(Oc4ccc(F)cc4F)CC2)CCN(C(=O)OC(C)(C)C)C3)cn1` [Compound 260, tert-butyl 2-[4-(2,4-difluorophenoxy)piperidin-1-yl]-3-(1-ethyl-1H-pyrazol-4-yl)-5H,6H,7H,8H-pyrido[3,4-b]pyrazine-6-carboxylate], the IC50 in experiment [1] (setting [3]) and in experiment [2] (setting [4]) was 1 to 30 µM throughout.

Consider `CC(=O)N1CCc2nc(N3CCC(Oc4ccc(F)cc4F)CC3)c(-c3cncc(=O)[nH]3)nc2C1` [Compound 12, 6-{6-acetyl-2-[4-(2,4-difluorophenoxy)piperidin-1-yl]-5H,6H,7H,8H-pyrido[3,4-b]pyrazin-3-yl}-1,2-dihydropyrazin-2-one], for which the IC50 in experiment [1] (setting [7]) and in experiment [2] (setting [7]) was 1 to 30 µM each time.

As to `COc1cccc(-c2nc3cnccc3nc2N2CC3(CC(Oc4ccc(F)cc4F)C3)C2)n1` [Compound 104, 6-(2,4-difluorophenoxy)-2-[3-(6-methoxypyridin-2-yl)pyrido[3,4-b]pyrazin-2-yl]-2-azaspiro[3.3]heptane], the IC50 in experiment [1] (setting [3]) and in experiment [2] (setting [4]) was 1 to 30 µM in each case.

For `CC(=O)N1CCc2nc(N3CCC(Oc4ccc(F)cc4F)CC3)c(-c3cccc(N4CCCC4)n3)nc2C1` [Compound 101, 1-{2-[4-(2,4-difluorophenoxy)piperidin-1-yl]-3-[6-(pyrrolidin-1-yl)pyridin-2-yl]-5H,6H,7H,8H-pyrido[3,4-b]pyrazin-6-yl}ethan-1-one], the IC50 in experiment [1] (setting [3]) and in experiment [2] (setting [4]) was 1 to 30 µM throughout.

`CC(=O)N1CCc2nc(N3CCC(Oc4ccc(F)cc4F)CC3)c(C3=CCOC3)nc2C1` [Compound 306, 1-{2-[4-(2,4-difluorophenoxy)piperidin-1-yl]-3-(2,5-dihydrofuran-3-yl)-5H,6H,7H,8H-pyrido[3,4-b]pyrazin-6-yl}ethan-1-one]: the IC50 in experiment [1] (procedure of Example 24) was 0.1 to 1 µM; in experiment [2] (procedure of Example 24), 1 to 30 µM.

For `Cn1cc(-c2nc3cnc(C4CNC(=O)O4)cc3nc2N2CCC(Oc3ccc(F)cc3F)CC2)cn1` (stereo not drawn) [Compound 371, 5-(2-(4-(2,4-difluorophenoxy)piperidin-1-yl)-3-(1-methyl-1H-pyrazol-4-yl)pyrido[3,4-b]pyrazin-7-yl)oxazolidin-2-one], the IC50 was in the range of 0.1 to 1 µM in experiment [1] (procedure of Example 24) and 1 to 30 µM in experiment [2] (procedure of Example 24).

For `CC(C)(O)[C@H](O)c1cc2nc(N3CCN(Cc4cc(F)ccc4F)CC3)c(-c3cnn(CF)c3)nc2cn1` (single isomer, unassigned) [Compound 726], the IC50 in experiment [1] (procedure of Example 24) lay within 0.1 to 1 µM; in experiment [2] (procedure of Example 24) it was 1 to 30 µM.

Regarding `Cn1cc(-c2nc3cnc(C#N)cc3nc2N2CCN(Cc3ccc(F)cc3F)CC2)cn1` [Compound 216, 2-{4-[(2,4-difluorophenyl)methyl]piperazin-1-yl}-3-(1-methyl-1H-pyrazol-4-yl)pyrido[3,4-b]pyrazine-7-carbonitrile], the results for the IC50 in experiment [1] (setting [3]) and in experiment [2] (setting [4]) were 0.1 to 1 µM and 1 to 30 µM, respectively.

Take `Cn1cc(-c2nc3cnccc3nc2N2CCC(C)(Oc3ccc(F)cc3F)CC2)cn1` [Compound 188, 4-(2,4-difluorophenoxy)-4-methyl-1-[3-(1-methyl-1H-pyrazol-4-yl)pyrido[3,4-b]pyrazin-2-yl]piperidine]: the half-maximal inhibitory concentration (IC50) is 0.1 to 1 µM in experiment [1] (setting [3]) and 1 to 30 µM in experiment [2] (setting [4]).
